The values below come from US10934298B2, “Substituted pyrazolo[1,5-a]pyrimidines for the treatment of medical disorders” (BIAL—BioTech Investments, Inc., priority 2016, dated 2021).

For this assay, the target named is T1, glucocerebrosidase (Gcase) (Homo sapiens, UniProt P04062).
T1 construct: micellar solution containing 10 nM GCase and 100 nM saposin C
T1 sequence (P04062 40-536): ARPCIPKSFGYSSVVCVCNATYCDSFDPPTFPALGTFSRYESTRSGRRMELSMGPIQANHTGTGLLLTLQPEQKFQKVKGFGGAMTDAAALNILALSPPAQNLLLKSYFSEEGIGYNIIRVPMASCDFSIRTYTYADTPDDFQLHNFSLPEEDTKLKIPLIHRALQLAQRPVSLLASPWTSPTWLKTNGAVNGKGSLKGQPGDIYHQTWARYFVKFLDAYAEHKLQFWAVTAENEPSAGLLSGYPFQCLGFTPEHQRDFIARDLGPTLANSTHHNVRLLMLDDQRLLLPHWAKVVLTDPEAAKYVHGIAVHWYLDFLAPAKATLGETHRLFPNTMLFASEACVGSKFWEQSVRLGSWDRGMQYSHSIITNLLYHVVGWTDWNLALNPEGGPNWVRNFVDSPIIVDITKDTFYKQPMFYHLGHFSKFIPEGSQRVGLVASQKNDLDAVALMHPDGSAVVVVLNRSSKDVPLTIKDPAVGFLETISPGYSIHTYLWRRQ
Briefly: Glucocerebrosidase (Gcase) activation assay with 4-methylumbelliferyl-beta-D-glucopyranoside substrate, saposin C and phosphatidylserine/triton micelles, fluorescence readout. The assay is classed as biochemical. Particulars: for Percent Gcase Activation, 0.1 μM Test Compound: test compound at 0.1 μM; for Percent Gcase Activation, 1 μM Test Compound: test compound at 1.0 μM. In short, it runs like this:
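Fluorescence (ex 365 nm, em 440 nm) read after glycine pH 12.5 stop of a 15 min room-temperature reaction. GCase 10 nM plus saposin C 100 nM in PS/triton micelles, pH 4.7, preincubated 30 min with compound; substrate solution held 2 mM 4-MU-beta-glucoside. Screened at 1.0 and 0.1 μM; 8-point, 3-fold curves from 5 μM top.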

Structures are written as SMILES.

`Cc1cc(-c2ncccc2F)nc2c(C(=O)NC(C3CC3)C(F)(F)F)cnn12` (centres unmarked) [III-203]: the “Percent Gcase Activation, 0.1 μM Test Compound” value was “*** (greater than 20% Gcase activation)” and the “Percent Gcase Activation, 1 μM Test Compound” value is listed as “+++ (Gcase activation greater than 60%)”.

Turning to `Cc1cc(-c2ccc(F)cn2)nc2c(C(=O)NC(C3CC3)C(F)(F)F)cnn12` (centres unmarked) [III-204], the “Percent Gcase Activation, 0.1 μM Test Compound” value is on record as “*** (greater than 20% Gcase activation)” and the “Percent Gcase Activation, 1 μM Test Compound” value is on record as “+++ (Gcase activation greater than 60%)”.

Turning to `Cc1cc(-c2cc(F)ccn2)nc2c(C(=O)NC(C3CC3)C(F)(F)F)cnn12` (centres unmarked) [III-205], the “Percent Gcase Activation, 0.1 μM Test Compound” value is listed as “*** (greater than 20% Gcase activation)” and the “Percent Gcase Activation, 1 μM Test Compound” value was “+++ (Gcase activation greater than 60%)”.

Turning to `Cc1cc(-c2ncccc2Cl)nc2c(C(=O)NC(C3CC3)C(F)(F)F)cnn12` (centres unmarked) [III-206], the “Percent Gcase Activation, 0.1 μM Test Compound” value is listed as “*** (greater than 20% Gcase activation)” and the “Percent Gcase Activation, 1 μM Test Compound” value is “+++ (Gcase activation greater than 60%)”.

In the case of `Cc1cc(-c2cc(Cl)ccn2)nc2c(C(=O)NC(C3CC3)C(F)(F)F)cnn12` (centres unmarked) [III-207], the “Percent Gcase Activation, 0.1 μM Test Compound” value is reported as “*** (greater than 20% Gcase activation)” and the “Percent Gcase Activation, 1 μM Test Compound” value is “+++ (Gcase activation greater than 60%)”.

With `Cc1cc(-c2ccc(Cl)cn2)nc2c(C(=O)NC(C3CC3)C(F)(F)F)cnn12` (centres unmarked) [III-208], the “Percent Gcase Activation, 0.1 μM Test Compound” value is “** (Gcase activation in the range of 10% up to 20%)” and the “Percent Gcase Activation, 1 μM Test Compound” value was “+ (less than 30% Gcase activation)”.

`Cc1cc(-c2nccs2)nc2c(C(=O)NC(C3CC3)C(F)(F)F)cnn12` (centres unmarked) [III-209]: the “Percent Gcase Activation, 0.1 μM Test Compound” value is “*** (greater than 20% Gcase activation)” and the “Percent Gcase Activation, 1 μM Test Compound” value is “+++ (Gcase activation greater than 60%)”.

In the case of `Cc1cc(-c2ccc3c(c2)OCO3)nc2c(C(=O)N[C@@H](C)C3CC3)cnn12` [III-210], the “Percent Gcase Activation, 0.1 μM Test Compound” value was “*** (greater than 20% Gcase activation)” and the “Percent Gcase Activation, 1 μM Test Compound” value was “+++ (Gcase activation greater than 60%)”.

As to `Cc1cc(-c2ccccc2C#N)nc2c(C(=O)NC(C3CC3)C(F)(F)F)cnn12` (centres unmarked) [III-211], the “Percent Gcase Activation, 0.1 μM Test Compound” value is given as “*** (greater than 20% Gcase activation)” and the “Percent Gcase Activation, 1 μM Test Compound” value is recorded as “+++ (Gcase activation greater than 60%)”.

For `Cc1cc(-c2ccccc2C#N)nc2c(C(=O)N[C@H](C)C(F)(F)F)cnn12` [III-212], the “Percent Gcase Activation, 0.1 μM Test Compound” value was “* (less than 10% Gcase activation)” and the “Percent Gcase Activation, 1 μM Test Compound” value is listed as “++ (Gcase activation in the range of 30% up to 60%)”.

As for `Cc1cc(-c2ccccc2C#N)nc2c(C(=O)N[C@@H](C)C(F)(F)F)cnn12` [III-213], the “Percent Gcase Activation, 0.1 μM Test Compound” value is given as “*** (greater than 20% Gcase activation)” and the “Percent Gcase Activation, 1 μM Test Compound” value was “+++ (Gcase activation greater than 60%)”.

As to `Cc1cc(-c2cc(C)n3ncc(C(=O)NC(C4CC4)C(F)(F)F)c3n2)sn1` (centres unmarked) [III-214], the “Percent Gcase Activation, 0.1 μM Test Compound” value is reported as “*** (greater than 20% Gcase activation)” and the “Percent Gcase Activation, 1 μM Test Compound” value is recorded as “+++ (Gcase activation greater than 60%)”.

For the compound `Cc1cc(-c2cc(C)n3ncc(C(=O)N[C@H](C4CC4)C(F)(F)F)c3n2)sn1` [III-215], the “Percent Gcase Activation, 0.1 μM Test Compound” value was “*** (greater than 20% Gcase activation)” and the “Percent Gcase Activation, 1 μM Test Compound” value is reported as “+++ (Gcase activation greater than 60%)”.

On to `Cc1cc(-c2cc(C)n3ncc(C(=O)N[C@@H](C4CC4)C(F)(F)F)c3n2)sn1` [III-216], for which the “Percent Gcase Activation, 0.1 μM Test Compound” value is on record as “*** (greater than 20% Gcase activation)” and the “Percent Gcase Activation, 1 μM Test Compound” value is on record as “+++ (Gcase activation greater than 60%)”.

For the compound `Cc1cc(-c2cccc3ncoc23)nc2c(C(=O)N[C@@H](C)C3CC3)cnn12` [III-217], the “Percent Gcase Activation, 0.1 μM Test Compound” value is “** (Gcase activation in the range of 10% up to 20%)” and the “Percent Gcase Activation, 1 μM Test Compound” value is recorded as “+++ (Gcase activation greater than 60%)”.

In the case of `Cc1cc(-c2cccc3ncoc23)nc2c(C(=O)N[C@H](C)C3CC3)cnn12` [III-218], the “Percent Gcase Activation, 0.1 μM Test Compound” value is given as “* (less than 10% Gcase activation)” and the “Percent Gcase Activation, 1 μM Test Compound” value is “++ (Gcase activation in the range of 30% up to 60%)”.

In the case of `Cc1cc(-c2cccc3ncoc23)nc2c(C(=O)NC(C)(C)C(F)(F)F)cnn12` [III-219], the “Percent Gcase Activation, 0.1 μM Test Compound” value is recorded as “** (Gcase activation in the range of 10% up to 20%)” and the “Percent Gcase Activation, 1 μM Test Compound” value is “++ (Gcase activation in the range of 30% up to 60%)”.

With `Cc1cc(-c2ccc3scnc3c2)nc2c(C(=O)NC(C)C(F)(F)F)cnn12` (centres unmarked) [III-220], the “Percent Gcase Activation, 0.1 μM Test Compound” value is reported as “*** (greater than 20% Gcase activation)” and the “Percent Gcase Activation, 1 μM Test Compound” value is reported as “+++ (Gcase activation greater than 60%)”.

Turning to `Cc1cc(-c2cccc3ncsc23)nc2c(C(=O)NC(C)C(F)(F)F)cnn12` (centres unmarked) [III-221], the “Percent Gcase Activation, 0.1 μM Test Compound” value is on record as “*** (greater than 20% Gcase activation)” and the “Percent Gcase Activation, 1 μM Test Compound” value is “+++ (Gcase activation greater than 60%)”.

In the case of `Cc1cc(-c2cccc3ncsc23)nc2c(C(=O)N[C@@H](C)C3CC3)cnn12` [III-222], the “Percent Gcase Activation, 0.1 μM Test Compound” value is reported as “*** (greater than 20% Gcase activation)” and the “Percent Gcase Activation, 1 μM Test Compound” value is given as “+++ (Gcase activation greater than 60%)”.

Regarding `Cc1cc(-c2cccc3ncoc23)nc2c(C(=O)NC(C)(C)C3CC3)cnn12` [III-223], the “Percent Gcase Activation, 0.1 μM Test Compound” value is given as “*** (greater than 20% Gcase activation)” and the “Percent Gcase Activation, 1 μM Test Compound” value is “+++ (Gcase activation greater than 60%)”.

Take `CCc1cc(N2CCN(C(C)C)C2=O)nc2c(C(=O)NC(C3CC3)C(F)(F)F)cnn12` (centres unmarked) [III-224]: the “Percent Gcase Activation, 0.1 μM Test Compound” value is on record as “** (Gcase activation in the range of 10% up to 20%)” and the “Percent Gcase Activation, 1 μM Test Compound” value is given as “+++ (Gcase activation greater than 60%)”.

For `Cc1cc(N2CCN(C(C)C)C2=O)nc2c(C(=O)NC(C3CC3)C(F)(F)F)cnn12` (centres unmarked) [III-225], the “Percent Gcase Activation, 0.1 μM Test Compound” value is recorded as “** (Gcase activation in the range of 10% up to 20%)” and the “Percent Gcase Activation, 1 μM Test Compound” value is listed as “+++ (Gcase activation greater than 60%)”.

`CCc1cc(N2CCN(C(C)C)C2=O)nc2c(C(=O)NC(C)C(F)(F)F)cnn12` (centres unmarked) [III-226]: the “Percent Gcase Activation, 0.1 μM Test Compound” value was “* (less than 10% Gcase activation)” and the “Percent Gcase Activation, 1 μM Test Compound” value is given as “++ (Gcase activation in the range of 30% up to 60%)”.

For `Cc1cc(N2CCN(C(C)C)C2=O)nc2c(C(=O)NC(C)C(F)(F)F)cnn12` (centres unmarked) [III-227], the “Percent Gcase Activation, 0.1 μM Test Compound” value is “* (less than 10% Gcase activation)” and the “Percent Gcase Activation, 1 μM Test Compound” value was “+ (less than 30% Gcase activation)”.

Turning to `Cc1cc(N2CCNC2=O)nc2c(C(=O)NC(C3CC3)C(F)(F)F)cnn12` (centres unmarked) [III-228], the “Percent Gcase Activation, 0.1 μM Test Compound” value is given as “* (less than 10% Gcase activation)” and the “Percent Gcase Activation, 1 μM Test Compound” value is recorded as “+++ (Gcase activation greater than 60%)”.

Take `CCc1cc(N2CCN(C(C)C)C2=O)nc2c(C(=O)NC(C)(C)C)cnn12` [III-229]: the “Percent Gcase Activation, 0.1 μM Test Compound” value was “* (less than 10% Gcase activation)” and the “Percent Gcase Activation, 1 μM Test Compound” value was “++ (Gcase activation in the range of 30% up to 60%)”.

For the compound `Cc1cc(N2CCN(C(C)C)C2=O)nc2c(C(=O)NC(C)(C)C3CC3)cnn12` [III-230], the “Percent Gcase Activation, 0.1 μM Test Compound” value is on record as “* (less than 10% Gcase activation)” and the “Percent Gcase Activation, 1 μM Test Compound” value is reported as “++ (Gcase activation in the range of 30% up to 60%)”.

Consider `Cc1cc(N2CCN(C(C)C)C2=O)nc2c(C(=O)NC(C)(C)C(F)(F)F)cnn12` [III-231], for which the “Percent Gcase Activation, 0.1 μM Test Compound” value is “* (less than 10% Gcase activation)” and the “Percent Gcase Activation, 1 μM Test Compound” value is “++ (Gcase activation in the range of 30% up to 60%)”.

As for `Cc1cc(N2CCN(C(C)C)C2=O)nc2c(C(=O)NC(C)(C)C)cnn12` [III-232], the “Percent Gcase Activation, 0.1 μM Test Compound” value was “* (less than 10% Gcase activation)” and the “Percent Gcase Activation, 1 μM Test Compound” value is listed as “+ (less than 30% Gcase activation)”.

With `Cc1cc(N2CCN(CC(F)(F)F)C2=O)nc2c(C(=O)NC(C3CC3)C(F)(F)F)cnn12` (centres unmarked) [III-233], the “Percent Gcase Activation, 0.1 μM Test Compound” value is reported as “** (Gcase activation in the range of 10% up to 20%)” and the “Percent Gcase Activation, 1 μM Test Compound” value is recorded as “+++ (Gcase activation greater than 60%)”.

As to `Cc1cc(-c2cccc(Cl)n2)nc2c(C(=O)NC(C)C(F)(F)F)cnn12` (centres unmarked) [III-234], the “Percent Gcase Activation, 0.1 μM Test Compound” value is listed as “*** (greater than 20% Gcase activation)” and the “Percent Gcase Activation, 1 μM Test Compound” value was “+++ (Gcase activation greater than 60%)”.

With `Cc1cc(-c2cccc(Cl)n2)nc2c(C(=O)N[C@H](C)C(F)(F)F)cnn12` [III-235], the “Percent Gcase Activation, 0.1 μM Test Compound” value is listed as “** (Gcase activation in the range of 10% up to 20%)” and the “Percent Gcase Activation, 1 μM Test Compound” value was “+++ (Gcase activation greater than 60%)”.

As for `Cc1cc(-c2cccc(Cl)n2)nc2c(C(=O)N[C@@H](C)C(F)(F)F)cnn12` [III-236], the “Percent Gcase Activation, 0.1 μM Test Compound” value is recorded as “*** (greater than 20% Gcase activation)” and the “Percent Gcase Activation, 1 μM Test Compound” value is recorded as “+++ (Gcase activation greater than 60%)”.
